Source: US8574865B2, “Methods and assays for identifying compounds that modulate protein-protein interactions” (Sanofi, priority 2007, dated 2013)
“Also recorded” adds a separate entry of the source.

Columns and labels:
ADRB2 = biological target: T1, ADRB2 (Homo sapiens, UniProt P07550); test: GPCR Per-Luc assay, HEK293 cells stably expressing Arr-luc234V233 and transiently transfected with ADRB2-TEV; format: cell-based; details: different concentrations, two hours
T1 construct: expressed in transfected cells
T1 sequence (P07550 whole entry): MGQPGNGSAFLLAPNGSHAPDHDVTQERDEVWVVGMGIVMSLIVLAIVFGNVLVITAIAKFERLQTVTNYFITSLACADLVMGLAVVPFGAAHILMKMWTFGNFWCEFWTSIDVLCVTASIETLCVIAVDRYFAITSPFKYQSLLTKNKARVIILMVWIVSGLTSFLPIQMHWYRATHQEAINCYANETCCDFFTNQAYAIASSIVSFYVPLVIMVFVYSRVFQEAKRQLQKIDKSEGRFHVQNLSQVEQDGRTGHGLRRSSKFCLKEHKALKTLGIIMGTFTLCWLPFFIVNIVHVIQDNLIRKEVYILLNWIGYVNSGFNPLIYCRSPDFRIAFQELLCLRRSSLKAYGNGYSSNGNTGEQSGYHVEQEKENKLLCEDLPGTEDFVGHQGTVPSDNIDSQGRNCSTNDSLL

[1] = test system: Endogenous receptor EDG in HEK293 cells; test: FLIPR and cAMP assays; details: HEK293 endogenous EDG receptors
V2 vasopressin receptor = biological target: T2, V2 vasopressin receptor (Homo sapiens, UniProt P30518); test: GPCR Per-Luc assay, HEK293 cells stably expressing Arr-luc234V233 and transfected with V2-TEV; format: cell-based; details: different concentrations, two hours
T2 construct: expressed in transfected cells; host or cells: HEK293 stably expressing Arr-luc234V233
T2 sequence (P30518 whole entry): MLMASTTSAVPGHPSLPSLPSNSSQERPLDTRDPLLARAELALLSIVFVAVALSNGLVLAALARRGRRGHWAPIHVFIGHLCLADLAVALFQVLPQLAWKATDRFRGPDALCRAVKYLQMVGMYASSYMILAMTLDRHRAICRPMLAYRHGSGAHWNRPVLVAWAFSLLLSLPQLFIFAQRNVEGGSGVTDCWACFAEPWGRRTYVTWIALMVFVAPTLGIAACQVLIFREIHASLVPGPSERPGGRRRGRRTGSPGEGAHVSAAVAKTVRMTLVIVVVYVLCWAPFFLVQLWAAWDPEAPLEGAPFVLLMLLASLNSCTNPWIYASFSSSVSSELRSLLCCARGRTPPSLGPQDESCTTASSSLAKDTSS
Method: HEK cells stably transfected with an arrestin/permuted luciferase construct were transiently transfected with a V2-TEV construct and induced with the agonist, 8AVP, arginine vasopressin (left graph).
Bright-GLO™ luciferase reagent was added to cells.

luciferase activity, compound alone (ADRB2)	SMILES	signal in FLIPR and cAMP assays [1]	luciferase activity (β arrestin recruitment to V2) (V2 vasopressin receptor)
did not affect the luciferase activity	CCCCCCCCCCCCC/C=C/[C@@H](O)[C@@H](N)COP(=O)(O)O [S1P, sphingosine-1-phosphate]	did produce positive signals	–
–	CCOc1ccc2c(c1)C1(CCC(OCCN3CCOCC3)CC1)C(=O)N2S(=O)(=O)c1ccc(C(=O)NC(C)(C)C)cc1OC (stereo not drawn) [SR121463]	–	increasing levels of luminescence were observed with increasing amounts; also recorded: induced a G protein-independent, arrestin-dependent signal
